# Laboratory results reported in patent publication US11179348B2, “Combination comprising pterostilbene for the treatment of cancer” (FUNDACIÓN UNIVERSIDAD CATÓLICA DE VALENCIA SAN VICENTE …, priority 2015, dated 2021).
# Marks after values point to notes of the source that are not given here.
# How the values were obtained:
# ASPC-1 cells = experiment: Effect of Pter on ASPC-1 cell growth or viability in vitro; assay type: cell-based, human; details: 15 μM Pter×60 min every 24 h
# Method: FIG. 11. In vivo effect of Pter on human pancreatic cancer growth. […] For the doses of 20 and 40 mg Pter/kg only the point at the end of the treatment period is shown.
# Human A2058, MeWo and MelJuso melanoma cells, and mouse AtT-20 pituitary corticotroph tumor cells were from the American Type Culture Collection (ATCC). Human HEMa-LP epidermal melanocytes were from Life Technologies (Grand Island, N.Y.). Human MDA-MB-231 (triple negative: ER−, PR−, HER2−) and MCF-7 (ER+, PR+, HER2−) breast adenocarcinoma, A549 lung adenocarcinoma (NSCLC), HepG2 hepatocellular carcinoma, LNCaP (AR+) and PC-3 (AR−) prostate adenocarcinoma, SK-OV-3 epithelial ovarian carcinoma, and HT-29 and Caco-2 colorectal carcinoma cells were from the American Type Culture Collection. Cells were grown in Dulbecco's modified Eagle's medium (DMEM) (Invitrogen, San Diego, Calif.), pH 7.4, supplemented with 10% heat-inactivated FCS (Biochrom KG, Berlin, Germany), 100 units/ml penicillin and 100 μg/ml streptomycin. Cells were plated, at a density of 20,000 cells/cm2, and cultured at 37° C. in a humidified atmosphere with 5% CO2. […] Cell numbers were determined using a Coulter Counter (Coulter Electronic Inc., Miami, Fla.). […] Cellular viability was assessed as previously reported (Mena, S. et al. Clin Cancer Res 13, 2658-2666 (2007)), by measuring trypan blue exclusion and leakage of lactate dehydrogenase activity.
# B16-F1 melanoma = experiment: In vivo growth of murine B16-F1 melanoma; details: B16-F1-RFP; 15 days after inoculation; Pter 30 mg/kg i.v. every 24 h, ± CRC
# Method: FIG. 14. In vivo effect of Pter on tumor growth (A) and on corticosterone (B) and ACTH (C) levels in plasma of murine B16-F1 melanoma-bearing mice. Pter (30 mg/kg) was administered i.v. every 24 h for a period of 15 days, starting 3 days after tumor inoculation.
# MeWo melanoma cells = experiment: Nrf2- and redox state-related enzyme activities and metabolites in MeWo cells growing in vivo; set-up: species or system human; details: in vivo +Pter, day 35
# Method: Transfection of the Red Fluorescence Protein.
# First the pDsRed-2 vector (Clontech Laboratories Inc., Palo Alto, Calif.) was used, as previously described for A375 melanoma cells (Mena, S. et al. J Transl Med 10, 8 (2012)), to engineer A2058, MeWo and MelJuso melanoma clones stably expressing the RFP. Isolation of A2058-RFP, MeWo-RFP or MelJuso-RFP cells from the growing xenografts was performed by laser microdissection and high-performance cell sorting as previously described in detail (Mena, S. et al. J Transl Med 10, 8 (2012)).
# To measure enzyme activity, isolated tumor cells were homogenized in 0.1 M phosphate buffer (pH 7.2) at 4° C. GCL and GSS activities were measured as described previously (Obrador, E. et al. Hepatology 35, 74-81 (2002)). GPX (selenium dependent) activity was measured as described by Flohé and Gunzler (Flohe, L. & Gunzler, W. A. Methods Enzymol 105, 114-121 (1984)) using H2O2 as a substrate. GSR activity was determined as described by Akerboom and Sies (Akerboom, T. P. et al, Bull Eur Physiopathol Respir 17 Suppl, 221-227 (1981)). GGT activity was measured as described previously (Obrador, E. et al. Hepatology 35, 74-81 (2002)). GST activity was measured using an assay kit from Sigma. TXNRD activity, defined by the concentration of sodium-lipoate (disulfide) reduced to dehydrolipoate (dithiol) per milligram protein, was measured as previously described (Javvadi, P. et al. Cancer Res 70, 1941-1950 (2010)). SOD activity was measured as described by Flohé and Otting (Flohe, L. & Otting, F. Methods Enzymol 105, 93-104 (1984).) using 2 mM cyanide in the assay medium to distinguish mangano-type enzyme (SOD2) from the cuprozinc type (SOD1). CAT activity was analyzed as described by Aebi (Aebi, H. Methods Enzymol 105, 121-126 (1984)). NOX activity was measured by chemiluminescence following the methodology of Wind et al. (Wind, S. et al. Comparative pharmacology of chemically distinct NADPH oxidase inhibitors. Br J Pharmacol 161, 885-898 (2010)). Protein concentration was determined with the Pierce BCA protein assay (Fisher Scientific, Waltham, Mass.).
# Measurement of H2O2 and O2^⋅−.
# Quantitative measurement of H2O2 and flow cytometry determination of O2^⋅− generation were performed as previously described (Benlloch, M. et al. J Biol Chem 281, 69-79 (2006)).
# GSH, GSSG, NADP^+ and NADPH Determination.
# GSH and GSSG were determined, following procedures previously described (Obrador, E. et al. PLoS One 9, e96466 (2014)), by LC/MS using the same equipment described above for pterostilbene determination. Cell processing was performed according to published methodology, where rapid N-ethylmaleimide derivatization was used to prevent GSH auto-oxidation (Asensi, M. et al. Anal Biochem 217, 323-328 (1994)). NADP^+ and NADPH were quantitated using an assay kit from Sigma (St. Louis, Mo.).
# [1] = system: MCF-7 breast adenocarcinoma; experiment: In vivo growth of MCF-7 breast cancer xenografts; set-up: species or system human; details: MCF-7, day 28
compound,measurement,setting,value
"COc1cc(/C=C/c2ccc(O)cc2)cc(OC)c1 [Pter, trans-3,5-dimethoxy-4′-hydroxystilbene]",cell growth or viability in vitro,ASPC-1 cells,did not affect
same,Tumor vol.,B16-F1 melanoma,790 ± 156* mm^3
same,CAT,MeWo melanoma cells,1.6 ± 0.4 mU/10^6 cells
same,G6PDH,MeWo melanoma cells,266 ± 39 mU/10^6 cells
same,GCL,MeWo melanoma cells,35 ± 12 mU/10^6 cells
same,GGT,MeWo melanoma cells,16.0 ± 2.4 mU/10^6 cells
same,GPX,MeWo melanoma cells,2.8 ± 1.0 mU/10^6 cells
same,GSH,MeWo melanoma cells,7.3 ± 1.7 nmol/10^6 cells
same,GSH/GSSG,MeWo melanoma cells,73 ± 11
same,GSR,MeWo melanoma cells,4.9 ± 1.2 mU/10^6 cells
same,GSS,MeWo melanoma cells,7.4 ± 1.6 mU/10^6 cells
same,GSSG,MeWo melanoma cells,0.1 ± 0.03 nmol/10^6 cells
same,GST,MeWo melanoma cells,6.5 ± 1.3 mU/10^6 cells
same,H2O2,MeWo melanoma cells,0.7 ± 0.2 nmol/10^6 cells × min
same,IDH,MeWo melanoma cells,1.5 ± 0.4 U/10^6 cells
same,ME,MeWo melanoma cells,32 ± 11 mU/10^6 cells
same,NADPH,MeWo melanoma cells,0.05 ± 0.002 nmol/mg prot
same,NADPH/NADP^+,MeWo melanoma cells,1.2 ± 0.2
same,NADP^+,MeWo melanoma cells,0.04 ± 0.01 nmol/mg prot
same,NOX,MeWo melanoma cells,132 ± 25 R.L.U./10^6 cells
same,O2^−,MeWo melanoma cells,"3.5 ± 0.7 ΔFL1, a.u."
same,SOD1,MeWo melanoma cells,0.5 ± 0.2 U/10^6 cells
same,SOD2,MeWo melanoma cells,0.1 ± 0.05 U/10^6 cells
same,TXN,MeWo melanoma cells,0.8 ± 0.2 μg/10^6 cells
same,TXNRD,MeWo melanoma cells,0.9 ± 0.2 U/10^6 cells
same,Tumor vol.,[1],689 ± 153 mm^3
